# Test results taken from patent US12161632B2, “Compositions and methods of treating cardiac fibrosis with ifetroban” (Cumberland Pharmaceuticals Inc., priority 2014, dated 2024).
# “Also recorded” adds a separate entry of the source.
# Tests used:
# [1] = test system: pulmonary artery banding (PAB) model of right ventricular pressure overload; assay: PAB model of right ventricular pressure overload: hemodynamics, echocardiography, histology (Example VII); format: in vivo; conditions: PAB mice; for RV fibrosis / fibrotic area (Masson's trichrome): ifetroban 25 mg/kg/day in drinking water; for cardiomyocyte diameter / cellular hypertrophy: ifetroban 25 mg/kg/day
# Experimental: (§1) Both male and female age-matched C57Bl/6 or FVB/NJ mice, obtained by in-house breeding, were used for pulmonary artery banding. LysM-GFP mice were obtained by cross-breeding LysM-Cre×mTomato/GFP reporter mice B6.129P2-Lyz2tm1(cre)Ifo/J (a gift from Tim Blackwell)×Gt(ROSA)26Sortm4(ACTB-tdTomato, -EGFP)Luo (JAX stock #007676). The day following surgery, mice were given either 25 mg/kg/day IFETROBAN (Cumberland Pharmaceuticals Inc., Nashville, TN) in drinking water or normal drinking water (vehicle) for 2 weeks or 6 weeks prior to hemodynamic evaluation. Mice were weighed and water was changed once a week.
# An RVSP of 30 mmHg was used to define PAH, and only samples from mice at or above this threshold were used for analysis of PAB groups. […] Two weeks after PAB, fibrosis in the RV of untreated mice has increased from <5% to […] (blue stain) in histologic sections of frozen RV stained with Masson's trichrome.
# In the previous experiments, there was an increase in RV mass but not yet any change in cardiac output or other functional parameters, apart from E/A wave ratio, following PAB. To determine whether the decrease in fibrosis seen with TP receptor antagonism leads to increased preservation of cardiac function, the period following PAB-induced pressure overload was extended to 6 weeks and dosing with ifetroban was continued to 6 weeks, as well. […] This was associated with a decreased ejection fraction and decreased fractional shortening, signs of cardiac failure. All of these were prevented in PAB mice that received ifetroban, despite similar RVSP. Mice underwent sham surgery or PAB and echocardiography and pressure-loop catheterization performed after 6 weeks. End diastolic and systolic volume of the left ventricle were measured using the average of values calculated using both spherical and cylindrical models. Also obtained from echocardiography were the left ventricular stroke volume and ejection fraction, as well as percent fractional shortening.
# [2] = test system: right ventricle gene expression; assay: Right ventricle gene expression, Affymetrix Mouse Gene 2.0 arrays (Example IV); format: in vivo, mice; conditions: banded mice, 25 mg/kg/day, 2 weeks
# Experimental: FVB/N mice or mice with a GFP macrophage-specific lineage tracing marker (LysM-Cre) underwent pulmonary banding to directly increase load stress (or sham surgery for controls), and starting the following day received either vehicle or the thromboxane receptor antagonist Ifetroban sodium in their drinking water (25 mg/kg/day). After 2 weeks, noninvasive hemodynamics were obtained by transthoracic echocardiography and invasive hemodynamics were obtained by pressure-volume catheterization of the right heart prior to sacrifice. Hearts were assessed for fibrosis and macrophage infiltration. RNA from right ventricles were isolated and used for unbiased discovery of altered gene expression using Affymetrix Mouse Gene 2.0 arrays performed on four groups (banded or sham). LysM-Cre mouse hearts were flash-frozen whole, cross-sectioned, and assessed by microscopy for fibrosis and macrophage infiltration. Differences between groups were assessed by ANOVA and t-tests. Correlations were assessed by Spearman correlation.
# [3] = test system: α and ß isoforms of the TP receptor; conditions: cited from earlier work
# RV gene expression = assay: Gene expression arrays on pooled RV from sham or PAB mice (Example VII); format: in vivo
# Text: To determine the mechanism through which ifetroban reduced fibrosis and protected RV contractility, we performed gene expression arrays on sets of pooled RV from mice with sham or PAB surgery, with and without drug treatment. By principal components analysis strong effect of banding was found, and an effect of ifetroban only in mice that had undergone banding. […] In particular, there were changes in gene expression associated with adhesion, collagen organization, extracellular structure, and developmental processes.
# [4] = test system: RV monocytes / macrophages; assay: Cardiac monocytes: LysM-Cre lineage tracing and flow cytometry of RV (Example VII); format: in vivo, mice
# Experimental: as §1
# TP receptors are also expressed on monocytes, and blockade of these receptors may have immune-specific effects. To determine whether the decrease in fibrosis seen with TP receptor inhibition was due to decreased macrophage infiltration or proliferation in the RV, PAB on LysM-Cre mice expressing eGFP under the LysozymeM promoter was performed, where all cells that have ever had monocyte lineage are labeled with GFP, even if they have later differentiated. […] Transgenic LysM-Cre×flox-mTomato-flox eGFP mice were used to label cells of monocyte derivation in the RV. These mice express a fluorescent red, except in cells derived from monocyte lineage (even if they have later differentiated), which express a fluorescent green. […] Flow sorting of whole RV for circulating markers found a non-significant trend towards an increase in PA-banded mice that was blocked by ifetroban.
# [5] = test system: pulmonary artery banded wild-type mice; assay: Pulmonary artery banding, two or six weeks of treatment: histology and echocardiography (Example VI); format: in vivo; conditions: PAB mice, 30 mg/kg/day, 6 weeks
# Experimental: Wild-type mice underwent pulmonary artery banding followed by two weeks or six weeks of treatment with ifetroban (30 mg/kg/day via the drinking water) vs. control (plain drinking water). The pulmonary artery band mimics pulmonary hypertension and right heart failure.
# [6] = test system: pulmonary artery banding (PAB) mouse model of pulmonary hypertension; assay: Pulmonary artery banding (PAB) model: cardiovascular phenotyping and histology (Example V); format: in vivo, mice; conditions: 14 days
# Experimental: Experimental Methods: In this pulmonary artery banding (PAB) animal model, we used wildtype or Rosa26-rtTA2 mice on a normal diet. Mice were anesthetized and subject to either PAB (20 mice) or sham surgery (10 mice) at 4-6 months of age. Following the procedure, the mice were given either ifetroban water at 30 mg/kg/day or normal drinking water, and after 14 days of treatment we performed cardiovascular phenotyping followed by terminal sacrifice, histology and gene expression arrays.
# Echocardiograms to assess cardiac output were obtained the day prior to catheterization and sacrifice. Our standard cardiovascular phenotyping continued with systemic pressure measurement by tail vein cuff, and intrajugular heart catheterization with measurement of right ventricular systolic pressure (RVSP) for peak pressure, diastolic pressure, diastolic time constant, arterial elastance, ejection fraction, and stroke volume.
# Following sacrifice, right ventricular hypertrophy was assessed in each animal as a percentage of heart weight. A random fraction of the right hearts were fixed in formalin for histology and examined for indices of fibrosis; other hearts were snap frozen for gene expression analysis via RNA microarray. Right hearts and lungs were collected for analysis of protein expression and gene expression array. Left lungs were fixed and stained. Platelet deposition was examined in small pulmonary artery vessels. The remaining organs were harvested and frozen in liquid nitrogen for potential gene expression analysis.
# [7] = only in the context of pressure overload
structure (smiles),measurement,setting,value
"CCCCCNC(=O)c1coc([C@H]2[C@@H](Cc3ccccc3CCC(=O)O)[C@@H]3CC[C@H]2O3)n1 [ifetroban, [1S-(1α,2α,3α,4α)]-2-[[3-[4-[(Pentylamino)carbonyl]-2-oxazolyl]-7-oxabicyclo[2.2.1]hept-2-yl]methyl]-benzenepropanoic acid]",RV mass (ratio of right ventricular weight to left ventricle+septum weight),"[1]; 25 mg/kg/day, 2 weeks",similarly increased in vehicle- and ifetroban-treated PAB groups; also recorded: not blocked
same,tricuspid E/A wave ratio (echocardiography),"[1]; 25 mg/kg/day, 2 weeks, p<0.05 by ANOVA",increased; also recorded: improved
same,RV mass (ratio of right ventricular weight to left ventricle+septum weight),"[1]; 25 mg/kg/day, 2 weeks, listed as Ifetroban",allowing increased RV mass
same,"signs of cardiac failure (left ventricular dilation, increased stroke volume, decreased ejection fraction and fractional shortening)","[1]; 25 mg/kg/day, 6 weeks",more functional adaptation and decreased indications of cardiac failure; also recorded: prevented
same,RV fibrosis / fibrotic area (Masson's trichrome),[1]; 2 weeks,almost completely abolished
same,RV fibrosis / fibrotic area (Masson's trichrome),"[1]; 2 weeks, listed as Ifetroban",near normalization of fibrotic area
same,RV fibrosis / fibrotic area (Masson's trichrome),"[1]; 2 weeks, listed as ifetrobn",antifibrotic effect
same,cardiomyocyte diameter / cellular hypertrophy,[1]; 2 weeks,blocked
same,cardiomyocyte diameter / cellular hypertrophy,"[1]; 2 weeks, listed as Ifetroban",prevented cellular hypertrophy
same,protection against pressure overload,"[1]; ifetroban, two weeks following PAB",protected against pressure overload
same,"anti-fibrotic pathways (THBS4, Asporin, LTBP2), expression arrays",[2],induction of anti-fibrotic pathways including THBS4 and TGF-beta inhibitors Asporin and LTBP2
same,"pathways related to functional hypertrophy, expression arrays",[2],induction of pathways related to functional hypertrophy
same,"pro-fibrotic pathways (PDGF-D, FBXO32), expression arrays",[2],reduction of pro-fibrotic pathways such as PDGF-D and FBXO32
same,blockade of TPα and TPβ receptor isoforms,[3],effectively blocked
same,principal components analysis of RV gene expression,"RV gene expression; 25 mg/kg/day, 2 weeks",strong effect of ifetroban only in mice with banding
same,Thbs4 expression (mRNA),RV gene expression; PAB RV only,strongly enhances
same,expression of antifibrotic genes,RV gene expression; PAB mice,increased expression
same,expression of genes associated with fibrosis,RV gene expression; PAB mice,reduced expression
same,expression of genes associated with myogenic differentiation,RV gene expression; PAB mice versus banded controls,enhanced
same,"RV expression of Cd14, Tlr8 and other pro-inflammatory genes","RV gene expression; PAB mice, 25 mg/kg/day, 2 weeks",decreased RV expression
same,expression of genes associated with inflammatory cell recruitment,RV gene expression; [7],reduced expression
same,genes associated with adaptive remodeling,RV gene expression; [7],ifetroban-induced genes associated with adaptive remodeling
same,gene expression in mice with only sham surgeries,"RV gene expression; sham, 25 mg/kg/day, 2 weeks",did not significantly change gene expression
same,PAB-induced increase in green (monocyte lineage) cells in RV,"[4]; LysM-Cre reporter mice, ifetroban",not in ifetroban-treated mice
same,flow sorting of whole RV for circulating markers: non-significant trend towards an increase in PA-banded mice,"[4]; wildtype mice, PAB",blocked
same,cardiomyocyte diameter in the right ventricle,[5],protected against increases in cardiomyocyte diameter
same,"echocardiography, left ventricular cardiac function (end diastolic/systolic volume, stroke volume, ejection fraction, fractional shortening)",[5],cardiac function values similar to the animals that underwent sham surgery; also recorded: echo values similar to sham surgery animals
same,right ventricular fibrosis,[5],reduced right ventricular fibrosis
same,fibrosis in banded right ventricles,[6]; 30 mg/kg/day,decreases fibrosis in banded right ventricles
same,right ventricular systolic pressure (RVSP),"[6]; PAB mice, 30 mg/kg/day in water",did not have an effect
same,ratio of tricuspid E to A wave,"[6]; banded mice, 30 mg/kg/day, p<0.05 unpaired t test",significantly increased
same,"fibrosis in cross-section of the right ventricle (trichrome-stained, 20×)","[6]; sham surgery and banded, 30 mg/kg/day",reduced fibrosis in the right ventricle for both the sham surgery and the banded right ventricle
